One assay has as its system BT474 cells. As to the kind of experiment: Cell proliferation inhibition assay for BT474 (CCK-8). The assay is classed as cell-based. As to conditions: Homo sapiens, BT-474; 72 h, 8 points. As to the method:
Human breast cancer BT474 cells was cultured in low glucose DMEM (Life Technologies 12320-032) containing 10% fetal bovine serum (FBS) at 37° C. in a humidified 10% CO2, 90% air incubator. Cells were harvested using trypsin/EDTA, counted using a haemocytometer, and plated 10000 cell/well in a 96-well clear tissue culture plate. The cells were incubated for 24 h at 37° C. to allow adherence. A serials of concentrations of each compound (ranging from 30 uM to […], 5-fold dilution) in 96-well plate, and incubated for 72 h. Each concentration was tested in triplicate wells. During the cell proliferation assay, BT474 cells were cultured in low-glucose DMEM containing 5% FBS, 50 ug/ml gentamicin, and 0.3% v/v DMSO. The culture medium was removed via aspiration, and the cell viability was detected by using CCK-8 cell proliferation kit.

For the next assay, the target named is T1, EGFR kinase (Homo sapiens, UniProt P00533).
T1 construct: purchased Invitrogen PV3872
T1 sequence (P00533 25-1210): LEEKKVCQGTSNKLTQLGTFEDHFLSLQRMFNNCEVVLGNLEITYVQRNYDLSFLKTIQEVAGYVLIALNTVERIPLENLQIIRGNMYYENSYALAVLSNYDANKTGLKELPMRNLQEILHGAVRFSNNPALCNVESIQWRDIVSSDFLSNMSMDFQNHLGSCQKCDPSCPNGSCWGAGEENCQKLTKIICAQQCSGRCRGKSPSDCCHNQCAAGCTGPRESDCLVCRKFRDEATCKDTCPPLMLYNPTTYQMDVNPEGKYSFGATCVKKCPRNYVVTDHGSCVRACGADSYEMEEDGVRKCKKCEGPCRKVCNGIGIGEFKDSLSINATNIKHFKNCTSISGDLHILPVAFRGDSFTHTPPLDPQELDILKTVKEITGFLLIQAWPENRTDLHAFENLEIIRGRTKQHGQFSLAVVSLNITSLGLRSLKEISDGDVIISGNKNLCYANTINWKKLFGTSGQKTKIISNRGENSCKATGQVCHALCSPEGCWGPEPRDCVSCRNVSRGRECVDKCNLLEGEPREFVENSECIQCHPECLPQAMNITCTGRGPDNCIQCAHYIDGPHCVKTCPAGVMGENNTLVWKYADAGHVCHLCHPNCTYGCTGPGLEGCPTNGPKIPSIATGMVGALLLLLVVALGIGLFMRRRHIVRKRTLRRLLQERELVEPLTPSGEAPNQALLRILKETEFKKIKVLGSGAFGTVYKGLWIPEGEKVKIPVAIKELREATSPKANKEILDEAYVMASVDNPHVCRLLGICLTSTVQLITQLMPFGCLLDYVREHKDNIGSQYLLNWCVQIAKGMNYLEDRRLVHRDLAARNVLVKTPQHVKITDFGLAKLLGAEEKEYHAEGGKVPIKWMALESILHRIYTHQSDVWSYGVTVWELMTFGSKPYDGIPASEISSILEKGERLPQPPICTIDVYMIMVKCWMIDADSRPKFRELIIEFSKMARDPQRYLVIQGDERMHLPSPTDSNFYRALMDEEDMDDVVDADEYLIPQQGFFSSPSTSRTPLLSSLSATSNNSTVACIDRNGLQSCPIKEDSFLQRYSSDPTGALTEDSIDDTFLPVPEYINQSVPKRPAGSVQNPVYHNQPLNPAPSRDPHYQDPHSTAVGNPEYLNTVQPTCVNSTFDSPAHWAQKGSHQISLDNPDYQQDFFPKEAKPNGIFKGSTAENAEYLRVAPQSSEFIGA
Nature of the assay: Kinase assay for EGFR (TR-FRET LanthaScreen). Format: biochemical. As to conditions: % inhibition at 100 nM or IC50 (nM). As to the method:
The extent to which the compounds of the present invention modulate EGFR kinase activity can be determined using time-resolved Fret (TR-FRET) assay (LanthaScreen® kinase activity assay, from Invitrogen). The assay employs EGFR kinase (PV3872, Invitrogen), Tb-Py20 antibody (PV3552, Invitrogen) and fluorescein-poly GT (PV3610, In vitrogen)
The assay is performed in a Black 384-well plate (available from Corning). EGFR kinase (is diluted in TR-FRET Dilution Buffer (PV3189, InVitrogen) at concentration of 0.4 ug/ml as stock solution, and then 2-fold serial diluted. Addition of 1 mM ATP initiated the reaction, and the reaction is incubated for 1 h reaction at room temperature. 10 μL of the Tb-antibody (from Invitrogen)+EDTA (from Invitrogen) solution prepared was added to each well of the assay plate and mix briefly, and incubated for 30 min. The signal is monitored by using M5 microplate reader (Ex=332 nm, Em=488 nm and 518 nm). Each compound is tested in duplicate wells. EGFR without compound is used as control. Staurosporine (available from Sigma) is used as positive control compound. Inhibition was calculated as percentage of the EGFR activity (without compound)
A general note: In TR-FRET formats the signal depends on donor and acceptor labels being close together.

Some results are limits rather than exact numbers.

One may read the IC50 as the concentration that inhibits the measured activity by half. A lower IC50 goes with higher potency. With `CP(C)(=O)CN1CCN(Cc2ccc(-c3ccc4ncnc(Nc5ccc(OCc6cccc(F)c6)c(Cl)c5)c4c3)o2)CC1` [Example 13, N-(4-(3-fluorobenzyloxy)-3-chlorophenyl)-6-(5-((4-((dimethylphosphinoyl)-methyl)piperazin-1-yl)methyl)furan-2-yl)quinazolin-4-amine], in the assay on BT474 cells, the half-inhibitory concentration (IC50) is 100 to 1000 nM. Also, the “EGFR inhibition inhibit % at 100 nM or IC50 (nM)” value (“EGFR inhibition inhibit %” for short) at EGFR kinase is given as “++ (>50% inhibition at 100 nM, or IC50 <100 nM for EGFR or ErbB2 kinases)”.
Turning to `CP1(=O)CCN(Cc2ccc(-c3ccc4ncnc(Nc5ccc(OCc6cccc[n+]6[O-])c(Cl)c5)c4c3)o2)CC1` [Example 15, 2-((2-chloro-4-(6-(5-((4-methyl-1,4-azaphosphino-1-yl)methyl)furan-2-yl)quinazolin-4-ylamino)phenoxy)methyl)pyridine 1-oxide], in the assay on BT474 cells, the IC50 was below 100 nM. The “EGFR inhibition inhibit %” value on EGFR kinase is listed as “++ (>50% inhibition at 100 nM, or IC50 <100 nM for EGFR or ErbB2 kinases)”.
In turn, `CCOP1(=O)CCN(Cc2ccc(-c3ccc4ncnc(Nc5ccc(OCc6cccc(F)c6)c(Cl)c5)c4c3)o2)CC1` [Example 17, N-(3-chloro-4-(3-fluorobenzyloxy)phenyl)-6-(5-((4-ethoxy-1,4-azaphosphino-1-yl)methyl)furan-2-yl)quinazolin-4-amine] registered an IC50 with BT474 cells below 100 nM. The “EGFR inhibition inhibit %” value at EGFR kinase was “++ (>50% inhibition at 100 nM, or IC50 <100 nM for EGFR or ErbB2 kinases)”.
With `C#Cc1cc(Nc2ncnc3ccc(-c4ccc(CN5CCP(C)(=O)CC5)o4)cc23)ccc1OCc1cccc(F)c1` [Example 23, N-(4-(3-fluorobenzyloxy)-3-ethynylphenyl)-6-(5-((4-methyl-1,4-azaphosphino-1-yl)methyl)furan-2-yl)quinazolin-4-amine], in the assay with BT474 cells, the half-inhibitory concentration (IC50) lay within 100 to 1000 nM. At EGFR kinase, the “EGFR inhibition inhibit %” value is given as “++ (>50% inhibition at 100 nM, or IC50 <100 nM for EGFR or ErbB2 kinases)”.
Turning to `Cc1cccc(COc2ccc(Nc3ncnc4ccc(-c5ccc(CN6CCP(C)(=O)CC6)o5)cc34)cc2Cl)[n+]1[O-]` [Example 24, 2-((2-chloro-4-(6-(5-((4-methyl-1,4-azaphosphino-1-yl)methyl)furan-2-yl)quinazolin-4-ylamino)phenoxy)methyl)-6-methylpyridine 1-oxide], the IC50 in the assay on BT474 cells lay in the range of 100 to 1000 nM. Besides, at EGFR kinase, the “EGFR inhibition inhibit %” value is listed as “++ (>50% inhibition at 100 nM, or IC50 <100 nM for EGFR or ErbB2 kinases)”.
Molecule `CP(C)(=O)CCNCc1ccc(-c2ccc3ncnc(Nc4ccc5c(cnn5Cc5cccc(F)c5)c4)c3c2)o1` [Example 25, 6-(5-((2-(dimethylphosphinoyl)ethylamino)methyl)furan-2-yl)-N-(1-(3-fluorobenzyl)-1H-indazol-5-yl)quinazolin-4-amine] yielded an IC50 in the assay on BT474 cells of 100 to 1000 nM. The “EGFR inhibition inhibit %” value at EGFR kinase is reported as “++ (>50% inhibition at 100 nM, or IC50 <100 nM for EGFR or ErbB2 kinases)”.
`CCN(CCP(C)(C)=O)Cc1ccc(-c2ccc3ncnc(Nc4ccc5c(cnn5Cc5cccc(F)c5)c4)c3c2)o1` [Example 26]: the IC50 in the assay with BT474 cells was 100 to 1000 nM. Also, on EGFR kinase, the “EGFR inhibition inhibit %” value is given as “++ (>50% inhibition at 100 nM, or IC50 <100 nM for EGFR or ErbB2 kinases)”.
As for `CP(C)(=O)CCN(CCO)Cc1ccc(-c2ccc3ncnc(Nc4ccc5c(cnn5Cc5cccc(F)c5)c4)c3c2)o1` [Example 27, 2-(N-((5-(4-(1-(3-fluorobenzyl)-1H-indazol-5-ylamino)quinazolin-6-yl)furan-2-yl)methyl)-N-(2-(dimethylphosphinoyl)ethyl)amino)ethanol], in the assay on BT474 cells, the concentration for half-maximal inhibition (IC50) was below 100 nM. Besides, the “EGFR inhibition inhibit %” value on EGFR kinase was “++ (>50% inhibition at 100 nM, or IC50 <100 nM for EGFR or ErbB2 kinases)”.
Molecule `CP1(=O)CCN(CC#Cc2ccc3ncnc(Nc4ccc5c(cnn5Cc5cccc(F)c5)c4)c3c2)CC1` [Example 28, N-(1-(3-fluorobenzyl)-1H-indazol-5-yl)-6-(3-(4-methyl-1,4-azaphosphino-1-yl)prop-1-ynyl)quinazolin-4-amine] had a 50% inhibitory concentration (IC50) with BT474 cells of 100 to 1000 nM. Moreover, on EGFR kinase, the “EGFR inhibition inhibit %” value is listed as “++ (>50% inhibition at 100 nM, or IC50 <100 nM for EGFR or ErbB2 kinases)”.

The values are drawn from US8987284B2, “Phosphorus containing quinazoline compounds and methods of use” (Newgen Therapeutics, Inc., priority 2009, dated 2015).
